Results: EP0497921B1, “METHOD FOR INHIBITING ENZYMATIC SYNTHESIS OF NUCLEIC ACIDS USING ISOPSORALENS” (ISAACS, Stephen T., priority 1989, dated 1991)

Tested on: HIV 115-mer
Assay: PCR sterilization with pre-irradiated compound (photoproduct) added to PCR product
Type: biochemical
Description: AMDMIP photoproduct was made by irradiating AMDMIP (using the CE-III device) in 1 x Taq buffer (50 mM KCL, 2.5 mM MgCl2, 10 mM Tris, pH 8.5, 200 µg/ml gelatin) in a separate vessel for 15 minutes at room temperature (RT). Aliquots of AMDMIP photoproduct and the unirradiated compound were added (by pipetting) at 50, 100, 200 and 300 µg/ml to 1 µl aliquots of a 10^6 dilution of PCR product copies. PCR product was provided by a) preparing template, b) providing template, c) providing PCR reagents, d) providing polymerase, e) mixing PCR reagents, template, and polymerase to initiate PCR, f) cycling to synthesize PCR product. Step a): Template Preparation. The templates were derived from actual patient samples. Ficoll-Hypaque separated peripheral blood mononuclear cells (PBMCs) are prepared from individuals enrolled in a longitudinal AIDS study. Approximately 1 X 10^6 cells are added to 10 ml of RPMI containing 10% fetal calf serum. The cells are pelleted by centrifugation at 200 x g for 5 minutes and washed twice with 10 ml PBS. […]
Again, to evaluate the efficacy of this method of sterilization, a subsequent polymerase chain reaction was carried out for 30 cycles in the presence of α-^32P-dCTP. PCR product was then quantitated by running gels (see above), cutting the bands (detected by autoradiography) and counting the bands on a commercial scintillation counter. […]

Q: Which results are given for “4'-Aminomethyl-4,5'-dimethylisopsoralen [AMDMIP]”?
A: sterilization of PCR (30 cycles, autoradiography) (unirradiated AMDMIP at the same concentration as the photoproduct): PCR product is clearly evident; sterilization of PCR (30 cycles, autoradiography) (unirradiated compound at 50, 100, 200 and 300 µg/ml): no sterilization
